Earlier results in patent publication US4650664A (Dr. Karl Thomae GmbH, priority 1982, dated 1987).

Conditions: human

## OCCN(CCO)c1nc(N2CCCCC2)c2nc(N(CCO)CCO)ncc2n1 [Mopidamol, 2,6-bis-(diethanolamino)-4-piperidinopyrimido[5,4-d]pyrimidine]
  Excretion in the urine: only excreted in the urine to a very small extent
